From patent publication US8846653B2, “Delta-tocotrienol treatment and prevention of pancreatic cancer” (University of South Florida, priority 2006, dated 2014)

Columns and labels:
Assay type in all cases: cell-based, human
BXPC3 cells = test: MTT assay of BXPC3 cultures, single 50 μM dose; set-up: MTT assay result, run 1 / MTT assay result, run 2 / MTT assay result, run 3 / MTT assay result, run 4 / MTT assay result, run 5 / MTT assay result, run 6 / MTT assay result, run 7 / MTT assay result, av (average) / MTT assay result, av-blank / MTT assay result, av: unit not given here; details: BXPC3, 50 μM; for MTT assay result, av-blank: average minus blank; for MTT assay result, av (average) / MTT assay result, av: average of 7 runs
In short: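 Viability measured by MTT assay 48 or 120 hours after one 50 μM treatment with tocol-family compounds, geranylgeraniol, succinic acid or vehicle, with untreated cultures in parallel. BXPC3 cells grown in FBS-supplemented medium, 37° C, humidified 5% CO2.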

MiaPaCa-2 cells = test: MTT assay of MiaPaCa2 cultures, single 50 μM dose; set-up: rel amt (relative value set to the control): unit not given here; details: MiaPaCa2, 50 μM; for MTT assay result, av-blank: average minus blank; for MTT assay result, av: average of 7 runs
In short: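 Viability measured by MTT 48 or 120 hours post-treatment, with a vehicle-only (ethanol-extracted olive oil) culture as control. MiaPaCa-2 cultures received one 50 μM exposure to a tocotrienol, tocopherol, tocopherol succinate, geranylgeraniol or succinic acid.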

[1] = tested on: SW1990 pancreatic cancer cells; test: MTS assay of SW1990 cultures, single 50 μM dose; details: SW1990, 50 μM
In short: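 MTS-based viability was measured 24, 48 or 72 h after a single 50 μM treatment; the agents were α/β/γ/δ-tocotrienol, α/β-tocopherol, tocopherol succinate, geranylgeraniol or succinic acid. The cells were SW1990, cultured in 10% FBS DMEM. Vehicle (ethanol-extracted olive oil) cultures ran in parallel as reference.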

Cc1c(C)c2c(c(C)c1O)CC[C@@](C)(CCC[C@H](C)CCC[C@H](C)CCCC(C)C)O2 [T alpha, alpha tocopherol]
rel amt (relative value set to the control) (BXPC3 cells; 48 hours): 120 | MTT assay result, av-blank (BXPC3 cells; 48 hours): 0.274 | MTT assay result, av (average) (BXPC3 cells; 48 hours): 0.323 | MTT assay result, run 1 (BXPC3 cells; 48 hours): 0.333 | MTT assay result, run 2 (BXPC3 cells; 48 hours): 0.328 | MTT assay result, run 3 (BXPC3 cells; 48 hours): 0.352 | MTT assay result, run 4 (BXPC3 cells; 48 hours): 0.296 | MTT assay result, run 5 (BXPC3 cells; 48 hours): 0.3 | MTT assay result, run 6 (BXPC3 cells; 48 hours): 0.341 | MTT assay result, run 7 (BXPC3 cells; 48 hours): 0.312 | rel amt (relative value set to the control) (BXPC3 cells; 120 hours (5 days)): 106 | MTT assay result, av-blank (BXPC3 cells; 120 hours (5 days)): 0.611 | MTT assay result, av (BXPC3 cells; 120 hours (5 days)): 0.666 | MTT assay result, run 1 (BXPC3 cells; 120 hours (5 days)): 0.657 | MTT assay result, run 2 (BXPC3 cells; 120 hours (5 days)): 0.642 | MTT assay result, run 3 (BXPC3 cells; 120 hours (5 days)): 0.666 | MTT assay result, run 4 (BXPC3 cells; 120 hours (5 days)): 0.659 | MTT assay result, run 5 (BXPC3 cells; 120 hours (5 days)): 0.705 | MTT assay result, run 6 (BXPC3 cells; 120 hours (5 days)): 0.66 | MTT assay result, run 7 (BXPC3 cells; 120 hours (5 days)): 0.672 | rel amt (relative value set to the control) (MiaPaCa-2 cells; 48 hours): 95 | MTT assay result, av-blank (MiaPaCa-2 cells; 48 hours): 0.296 | MTT assay result, av (MiaPaCa-2 cells; 48 hours): 0.342 | MTT assay result, run 1 (MiaPaCa-2 cells; 48 hours): 0.365 | MTT assay result, run 2 (MiaPaCa-2 cells; 48 hours): 0.352 | MTT assay result, run 3 (MiaPaCa-2 cells; 48 hours): 0.339 | MTT assay result, run 4 (MiaPaCa-2 cells; 48 hours): 0.338 | MTT assay result, run 5 (MiaPaCa-2 cells; 48 hours): 0.35 | MTT assay result, run 6 (MiaPaCa-2 cells; 48 hours): 0.297 | MTT assay result, run 7 (MiaPaCa-2 cells; 48 hours): 0.35 | rel amt (relative value set to the control) (MiaPaCa-2 cells; 120 hours (5 days)): 89 | MTT assay result, av-blank (MiaPaCa-2 cells; 120 hours (5 days)): 1.604 | MTT assay result, av (MiaPaCa-2 cells; 120 hours (5 days)): 1.656 | MTT assay result, run 1 (MiaPaCa-2 cells; 120 hours (5 days)): 1.56 | MTT assay result, run 2 (MiaPaCa-2 cells; 120 hours (5 days)): 1.647 | MTT assay result, run 3 (MiaPaCa-2 cells; 120 hours (5 days)): 1.59 | MTT assay result, run 4 (MiaPaCa-2 cells; 120 hours (5 days)): 1.619 | MTT assay result, run 5 (MiaPaCa-2 cells; 120 hours (5 days)): 2.059 | MTT assay result, run 6 (MiaPaCa-2 cells; 120 hours (5 days)): 1.526 | MTT assay result, run 7 (MiaPaCa-2 cells; 120 hours (5 days)): 1.588 | rel amnt (relative value set to the control) ([1]; 24 hours): 122 | MTS assay result, run 1 ([1]; 24 hours): 0.188 | MTS assay result, run 2 ([1]; 24 hours): 0.183 | MTS assay result, run 3 ([1]; 24 hours): 0.189 | MTS assay result, run 4 ([1]; 24 hours): 0.166 | MTS assay result, run 5 ([1]; 24 hours): 0.183 | MTS assay result, run 6 ([1]; 24 hours): 0.181 | MTS assay result, run 7 ([1]; 24 hours): 0.186 | MTS assay result, run 8 ([1]; 24 hours): 0.16 | MTS assay result, run 9 ([1]; 24 hours): 0.180 | rel amnt (relative value set to the control) ([1]; 48 hours): 107 | MTS assay result, run 1 ([1]; 48 hours): 0.172 | MTS assay result, run 2 ([1]; 48 hours): 0.17 | MTS assay result, run 3 ([1]; 48 hours): 0.16 | MTS assay result, run 4 ([1]; 48 hours): 0.154 | MTS assay result, run 5 ([1]; 48 hours): 0.154 | MTS assay result, run 6 ([1]; 48 hours): 0.167 | MTS assay result, run 7 ([1]; 48 hours): 0.18 | MTS assay result, run 8 ([1]; 48 hours): 0.146 | MTS assay result, run 9 ([1]; 48 hours): 0.163 | rel amnt (relative value set to the control) ([1]; 72 hours): 103 | MTS assay result, run 1 ([1]; 72 hours): 0.523 | MTS assay result, run 2 ([1]; 72 hours): 0.478 | MTS assay result, run 3 ([1]; 72 hours): 0.46 | MTS assay result, run 4 ([1]; 72 hours): 0.453 | MTS assay result, run 5 ([1]; 72 hours): 0.443 | MTS assay result, run 6 ([1]; 72 hours): 0.456 | MTS assay result, run 7 ([1]; 72 hours): 0.38 | MTS assay result, run 8 ([1]; 72 hours): 0.451 | MTS assay result, run 9 ([1]; 72 hours): 0.456

Cc1c(O)cc2c(c1C)O[C@](C)(CCC[C@H](C)CCC[C@H](C)CCCC(C)C)CC2 [T gamma]
rel amt (relative value set to the control) (BXPC3 cells; 48 hours): 115 | MTT assay result, av-blank (BXPC3 cells; 48 hours): 0.262 | MTT assay result, av (average) (BXPC3 cells; 48 hours): 0.311 | MTT assay result, run 1 (BXPC3 cells; 48 hours): 0.32 | MTT assay result, run 2 (BXPC3 cells; 48 hours): 0.356 | MTT assay result, run 3 (BXPC3 cells; 48 hours): 0.335 | MTT assay result, run 4 (BXPC3 cells; 48 hours): 0.304 | MTT assay result, run 5 (BXPC3 cells; 48 hours): 0.277 | MTT assay result, run 6 (BXPC3 cells; 48 hours): 0.28 | MTT assay result, run 7 (BXPC3 cells; 48 hours): 0.306 | rel amt (relative value set to the control) (BXPC3 cells; 120 hours (5 days)): 103 | MTT assay result, av-blank (BXPC3 cells; 120 hours (5 days)): 0.595 | MTT assay result, av (BXPC3 cells; 120 hours (5 days)): 0.650 | MTT assay result, run 1 (BXPC3 cells; 120 hours (5 days)): 0.628 | MTT assay result, run 2 (BXPC3 cells; 120 hours (5 days)): 0.66 | MTT assay result, run 3 (BXPC3 cells; 120 hours (5 days)): 0.653 | MTT assay result, run 4 (BXPC3 cells; 120 hours (5 days)): 0.649 | MTT assay result, run 5 (BXPC3 cells; 120 hours (5 days)): 0.682 | MTT assay result, run 6 (BXPC3 cells; 120 hours (5 days)): 0.615 | MTT assay result, run 7 (BXPC3 cells; 120 hours (5 days)): 0.661 | rel amt (relative value set to the control) (MiaPaCa-2 cells; 48 hours): 94 | MTT assay result, av-blank (MiaPaCa-2 cells; 48 hours): 0.292 | MTT assay result, av (MiaPaCa-2 cells; 48 hours): 0.338 | MTT assay result, run 1 (MiaPaCa-2 cells; 48 hours): 0.35 | MTT assay result, run 2 (MiaPaCa-2 cells; 48 hours): 0.323 | MTT assay result, run 3 (MiaPaCa-2 cells; 48 hours): 0.312 | MTT assay result, run 4 (MiaPaCa-2 cells; 48 hours): 0.36 | MTT assay result, run 5 (MiaPaCa-2 cells; 48 hours): 0.348 | MTT assay result, run 6 (MiaPaCa-2 cells; 48 hours): 0.328 | MTT assay result, run 7 (MiaPaCa-2 cells; 48 hours): 0.348 | rel amt (relative value set to the control) (MiaPaCa-2 cells; 120 hours (5 days)): 87 | MTT assay result, av-blank (MiaPaCa-2 cells; 120 hours (5 days)): 1.566 | MTT assay result, av (MiaPaCa-2 cells; 120 hours (5 days)): 1.618 | MTT assay result, run 1 (MiaPaCa-2 cells; 120 hours (5 days)): 1.52 | MTT assay result, run 2 (MiaPaCa-2 cells; 120 hours (5 days)): 1.516 | MTT assay result, run 3 (MiaPaCa-2 cells; 120 hours (5 days)): 1.547 | MTT assay result, run 4 (MiaPaCa-2 cells; 120 hours (5 days)): 1.625 | MTT assay result, run 5 (MiaPaCa-2 cells; 120 hours (5 days)): 1.917 | MTT assay result, run 6 (MiaPaCa-2 cells; 120 hours (5 days)): 1.568 | MTT assay result, run 7 (MiaPaCa-2 cells; 120 hours (5 days)): 1.635 | rel amnt (relative value set to the control) ([1]; 24 hours): 116 | MTS assay result, run 1 ([1]; 24 hours): 0.175 | MTS assay result, run 2 ([1]; 24 hours): 0.165 | MTS assay result, run 3 ([1]; 24 hours): 0.167 | MTS assay result, run 4 ([1]; 24 hours): 0.154 | MTS assay result, run 5 ([1]; 24 hours): 0.198 | MTS assay result, run 6 ([1]; 24 hours): 0.168 | MTS assay result, run 7 ([1]; 24 hours): 0.178 | MTS assay result, run 8 ([1]; 24 hours): 0.16 | MTS assay result, run 9 ([1]; 24 hours): 0.171 | rel amnt (relative value set to the control) ([1]; 48 hours): 94 | MTS assay result, run 1 ([1]; 48 hours): 0.131 | MTS assay result, run 2 ([1]; 48 hours): 0.133 | MTS assay result, run 3 ([1]; 48 hours): 0.14 | MTS assay result, run 4 ([1]; 48 hours): 0.141 | MTS assay result, run 5 ([1]; 48 hours): 0.142 | MTS assay result, run 6 ([1]; 48 hours): 0.122 | MTS assay result, run 7 ([1]; 48 hours): 0.16 | MTS assay result, run 8 ([1]; 48 hours): 0.164 | MTS assay result, run 9 ([1]; 48 hours): 0.142 | rel amnt (relative value set to the control) ([1]; 72 hours): 108 | MTS assay result, run 1 ([1]; 72 hours): 0.5 | MTS assay result, run 2 ([1]; 72 hours): 0.497 | MTS assay result, run 3 ([1]; 72 hours): 0.46 | MTS assay result, run 4 ([1]; 72 hours): 0.505 | MTS assay result, run 5 ([1]; 72 hours): 0.515 | MTS assay result, run 6 ([1]; 72 hours): 0.469 | MTS assay result, run 7 ([1]; 72 hours): 0.43 | MTS assay result, run 8 ([1]; 72 hours): 0.451 | MTS assay result, run 9 ([1]; 72 hours): 0.478
